Values of other authors, collected in patent US4380638A, “Chemical compounds” (Bristol-Myers Company, priority 1981, dated 1983).

Assays:
H2 -receptor [1] = tested on: H2 -receptor
[2] = agranulocytosis
peptic ulcer disease = conditions: Gray et al., Lancet, 1, 8001 (1977)
H2 -receptor [3] = conditions: man

| Structure (SMILES) | H2-antagonist potency/effectiveness relative to another drug (H2 -receptor [1]) | toxicity [2] | clinical effectiveness in peptic ulcer disease (peptic ulcer disease) | oral absorption | oral activity (H2 -receptor [3]) |
| --- | --- | --- | --- | --- | --- |
| CNC(=NC#N)NCCSCc1[nH]cnc1C [Cimetidine] | as effective an H2 -antagonist as metiamide | without producing agranulocytosis | effective therapeutic agent in the treatment of peptic ulcer disease | – | – |
| CNC(=S)NCCCCc1cnc[nH]1 [Burimamide] | – | – | – | poor | – |
| CNC(=S)NCCSCc1[nH]cnc1C [Metiamide] | more potent than burimamide | agranulocytosis | – | – | orally active in man |
